{"source": "patent US7211572B2", "about": "(Japan Tobacco Inc., priority 2003, dated 2007)", "note": "Structures can show the parent of a compound that is named as a salt.", "data": [{"target": "T1, HIV integrase (Human immunodeficiency virus type 1 group M subtype B, UniProt P12497, F1332H)", "T1 construct": "HIV integrase full length gene; made in house; host or cells: Escherichia coli BL21(DE3), plasmid pET21a-INH", "test": "Determination of enzyme (HIV integrase) inhibitory activity", "assay_type": "biochemical", "details": "recombinant HIV integrase (F185H), strand transfer ELISA, absorbance at 450 nm", "summary_of_the_method": "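Full-length integrase with F185H, expressed in E. coli and purified, was reacted for 60 min at 37 °C with compound and biotinylated donor DNA bound to streptavidin plates. Target DNA was added for 10 min, then anti-digoxigenin-peroxidase detection at A450; IC50 from % inhibition versus enzyme-free blank.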", "units": {"IC50": "nM"}, "values": [{"smiles": "O=C1c2c(O)c(=O)c(-c3ccccn3)cn2CCN1Cc1ccc(F)cc1", "note": "[Example 363, 2-(4-fluorobenzyl)-9-hydroxy-7-(pyridin-2-yl)-3,4-dihydro-2H-pyrido[1,2-a]pyrazine-1,8-dione hydrochloride]", "IC50": "10 to 100"}, {"smiles": "O=c1c(-c2ccccn2)cn2ccn(Cc3cccc(Cl)c3F)c(=O)c2c1O", "note": "[Example 364, 2-(3-chloro-2-fluorobenzyl)-9-hydroxy-7-(pyridin-2-yl)-2H-pyrido[1,2-a]pyrazine-1,8-dione hydrochloride]", "IC50": "< 10"}, {"smiles": "O=c1c(-c2ccccn2)cn2ccn(Cc3cccc(F)c3)c(=O)c2c1O", "note": "[Example 365, 2-(3-fluorobenzyl)-9-hydroxy-7-(pyridin-2-yl)-2H-pyrido[1,2-a]pyrazine-1,8-dione hydrochloride]", "IC50": "10 to 100"}, {"smiles": "CC(=O)Nc1cc(F)ccc1CN1CCn2cc(-c3nccs3)c(=O)c(O)c2C1=O", "note": "[Example 366, N-{5-fluoro-2-[9-hydroxy-1,8-dioxo-7-(thiazol-2-yl)-1,3,4,8-tetrahydro-pyrido[1,2-a]pyrazin-2-ylmethyl]phenyl}acetamide hydrochloride]", "IC50": "100 to 1000"}, {"smiles": "CC(C)(C)C(=O)c1cn2c(c(O)c1=O)C(=O)N(Cc1cccc(Cl)c1F)CC2", "note": "[Example 367, 2-(3-chloro-2-fluorobenzyl)-7-(2,2-dimethylpropionyl)-9-hydroxy-3,4-dihydro-2H-pyrido[1,2-a]pyrazine-1,8-dione hydrochloride]", "IC50": "10 to 100"}, {"smiles": "O=C(O)c1cc(F)ccc1CN1CCn2cc(-c3nccs3)c(=O)c(O)c2C1=O", "note": "[Example 368, 5-fluoro-2-[9-hydroxy-1,8-dioxo-7-(thiazol-2-yl)-1,3,4,8-tetrahydro-pyrido[1,2-a]pyrazin-2-ylmethyl]benzoic acid hydrochloride]", "IC50": "10 to 100"}, {"smiles": "O=c1c(-c2ccccn2)cn2ccn(Cc3ccc(F)c(F)c3)c(=O)c2c1O", "note": "[Example 369, 2-(3,4-difluorobenzyl)-9-hydroxy-7-(pyridin-2-yl)-2H-pyrido[1,2-a]pyrazine-1,8-dione hydrochloride]", "IC50": "< 10"}, {"smiles": "CN(Cc1ccccc1)C(=O)c1cn2c(c(O)c1=O)C(=O)N(Cc1cccc(Cl)c1)CC2", "note": "[Example 370, N-benzyl-N-methyl-2-(3-chlorobenzyl)-9-hydroxy-1,8-dioxo-1,3,4,8-tetrahydro-2H-pyrido[1,2-a]pyrazine-7-carboxamide hydrochloride]", "IC50": "< 10"}, {"smiles": "O=C(NCc1cccnc1)c1cn2c(c(O)c1=O)C(=O)N(Cc1cccc(Cl)c1)CC2", "note": "[Example 371, N-(pyridin-3-ylmethyl)-2-(3-chlorobenzyl)-9-hydroxy-1,8-dioxo-1,3,4,8-tetrahydro-2H-pyrido[1,2-a]pyrazine-7-carboxamide hydrochloride]", "IC50": "10 to 100"}, {"smiles": "O=C(NCc1ccccn1)c1cn2c(c(O)c1=O)C(=O)N(Cc1cccc(Cl)c1)CC2", "note": "[Example 372, N-(pyridin-2-ylmethyl)-2-(3-chlorobenzyl)-9-hydroxy-1,8-dioxo-1,3,4,8-tetrahydro-2H-pyrido[1,2-a]pyrazine-7-carboxamide hydrochloride]", "IC50": "10 to 100"}, {"smiles": "O=C1c2c(O)c(=O)c(-c3ccccn3)cn2CCN1Cc1ccc(Cl)c(Cl)c1", "note": "[Example 373, 2-(3,4-dichlorobenzyl)-9-hydroxy-7-(pyridin-2-yl)-3,4-dihydro-2H-pyrido[1,2-a]pyrazine-1,8-dione trifluoroacetate]", "IC50": "< 10"}, {"smiles": "CC(=O)CNC(=O)c1cn2c(c(O)c1=O)C(=O)N(Cc1cccc(Cl)c1)CC2", "note": "[Example 374, N-(2-oxopropyl)-2-(3-chlorobenzyl)-9-hydroxy-1,8-dioxo-1,3,4,8-tetrahydro-2H-pyrido[1,2-a]pyrazine-7-carboxamide hydrochloride]", "IC50": "10 to 100"}, {"smiles": "O=c1c(-c2ccncc2)cn2ccn(Cc3cccc(F)c3)c(=O)c2c1O", "note": "[Example 375, 2-(3-fluorobenzyl)-9-hydroxy-7-(pyridin-4-yl)-2H-pyrido[1,2-a]pyrazine-1,8-dione hydrochloride]", "IC50": "10 to 100"}, {"smiles": "CC(C)(C)C(=O)c1cn2ccn(Cc3cccc(F)c3)c(=O)c2c(O)c1=O", "note": "[Example 376, 7-(2,2-dimethylpropionyl)-2-(3-fluorobenzyl)-9-hydroxy-2H-pyrido[1,2-a]pyrazine-1,8-dione hydrochloride]", "IC50": "10 to 100"}, {"smiles": "O=C(NCc1ccccc1F)c1cn2c(c(O)c1=O)C(=O)N(Cc1ccc(F)cc1)CC2", "note": "[Example 377, N-(2-fluorobenzyl)-2-(4-fluorobenzyl)-9-hydroxy-1,8-dioxo-1,3,4,8-tetrahydro-2H-pyrido[1,2-a]pyrazine-7-carboxamide]", "IC50": "< 10"}, {"smiles": "O=C(NCc1ccc(F)cc1)c1cn2c(c(O)c1=O)C(=O)N(Cc1ccc(F)cc1)CC2", "note": "[Example 378, N-(4-fluorobenzyl)-2-(4-fluorobenzyl)-9-hydroxy-1,8-dioxo-1,3,4,8-tetrahydro-2H-pyrido[1,2-a]pyrazine-7-carboxamide]", "IC50": "< 10"}, {"smiles": "CNC(=O)c1cn2c(c(O)c1=O)C(=O)N(Cc1ccc(F)cc1)CC2", "note": "[Example 379]", "IC50": "100 to 1000"}, {"smiles": "O=C(NCc1ccccc1)c1cn2c(c(O)c1=O)C(=O)N(Cc1ccc(F)cc1)CC2", "note": "[Example 380, N-benzyl-2-(4-fluorobenzyl)-9-hydroxy-1,8-dioxo-1,3,4,8-tetrahydro-2H-pyrido[1,2-a]pyrazine-7-carboxamide]", "IC50": "10 to 100"}, {"smiles": "CNC(=O)c1cn2c(c(O)c1=O)C(=O)N(Cc1ccc(Cl)cc1)CC2", "note": "[Example 381, N-methyl-2-(4-chlorobenzyl)-9-hydroxy-1,8-dioxo-1,3,4,8-tetrahydro-2H-pyrido[1,2-a]pyrazine-7-carboxamide]", "IC50": "10 to 100"}, {"smiles": "CCC(C)(C)C(=O)c1cn2ccn(Cc3ccc(F)cc3)c(=O)c2c(O)c1=O", "note": "[Example 382, 7-(2,2-dimethylbutyryl)-2-(4-fluorobenzyl)-9-hydroxy-2H-pyrido[1,2-a]pyrazine-1,8-dione hydrochloride]", "IC50": "10 to 100"}, {"smiles": "O=C1c2c(O)c(=O)c(-c3cnccn3)cn2CCN1Cc1ccc(Cl)c(Cl)c1", "note": "[Example 383, 2-(3,4-dichlorobenzyl)-9-hydroxy-7-(pyrazin-2-yl)-3,4-dihydro-2H-pyrido[1,2-a]pyrazine-1,8-dione hydrochloride]", "IC50": "10 to 100"}, {"smiles": "CC(C)C(=O)c1cn2c(c(O)c1=O)C(=O)N(Cc1ccc(Cl)c(Cl)c1)CC2", "note": "[Example 384, 2-(3,4-dichlorobenzyl)-9-hydroxy-7-isobutyryl-3,4-dihydro-2H-pyrido[1,2-a]pyrazine-1,8-dione]", "IC50": "< 10"}, {"smiles": "CC(C)C(=O)c1cn2c(c(O)c1=O)C(=O)N(Cc1ccc(F)cc1)CC2", "note": "[Example 385, 2-(4-fluorobenzyl)-9-hydroxy-7-isobutyryl-3,4-dihydro-2H-pyrido[1,2-a]pyrazine-1,8-dione]", "IC50": "10 to 100"}, {"smiles": "CC(C)(C)C(=O)c1cn2c(c(O)c1=O)C(=O)N(Cc1ccc(F)cc1)CC2", "note": "[Example 386, 7-(2,2-dimethylpropionyl)-2-(4-fluorobenzyl)-9-hydroxy-3,4-dihydro-2H-pyrido[1,2-a]pyrazine-1,8-dione]", "IC50": "10 to 100"}, {"smiles": "CC(C)CC(=O)c1cn2ccn(Cc3ccc(F)cc3)c(=O)c2c(O)c1=O", "note": "[Example 387, 2-(4-fluorobenzyl)-9-hydroxy-7-(3-methylbutyryl)-2H-pyrido[1,2-a]pyrazine-1,8-dione hydrochloride]", "IC50": "10 to 100"}, {"smiles": "CNC(=O)c1cn2c(c(O)c1=O)C(=O)N(Cc1ccc(F)c(F)c1)CC2", "note": "[Example 388, N-methyl-2-(3,4-difluorobenzyl)-9-hydroxy-1,8-dioxo-1,3,4,8-tetrahydro-2H-pyrido[1,2-a]pyrazine-7-carboxamide]", "IC50": "100 to 1000"}, {"smiles": "COCC(C)(C)C(=O)c1cn2c(c(O)c1=O)C(=O)N(Cc1ccc(F)cc1)CC2", "note": "[Example 389, 2-(4-fluorobenzyl)-9-hydroxy-7-(3-methoxy-2,2-dimethylpropionyl)-3,4-dihydro-2H-pyrido[1,2-a]pyrazine-1,8-dione]", "IC50": "10 to 100"}, {"smiles": "O=c1c(-c2ccncn2)cn2ccn(Cc3cccc(Cl)c3)c(=O)c2c1O", "note": "[Example 391, 2-(3-chlorobenzyl)-9-hydroxy-7-(pyrimidin-4-yl)-2H-pyrido[1,2-a]pyrazine-1,8-dione hydrochloride]", "IC50": "10 to 100"}, {"smiles": "O=C1c2c(O)c(=O)c(-c3ccncn3)cn2CCN1Cc1ccc(F)cc1", "note": "[Example 392, 2-(4-fluorobenzyl)-9-hydroxy-7-(pyrimidin-4-yl)-3,4-dihydro-2H-pyrido[1,2-a]pyrazine-1,8-dione hydrochloride]", "IC50": "10 to 100"}, {"smiles": "O=C1c2c(O)c(=O)c(-c3ccncn3)cn2CCN1Cc1ccc(Cl)cc1", "note": "[Example 393, 2-(4-chlorobenzyl)-9-hydroxy-7-(pyrimidin-4-yl)-3,4-dihydro-2H-pyrido[1,2-a]pyrazine-1,8-dione hydrochloride]", "IC50": "10 to 100"}, {"smiles": "O=C1c2c(O)c(=O)c(-c3ccncn3)cn2CCN1Cc1ccc(F)c(Cl)c1", "note": "[Example 394, 2-(3-chloro-4-fluorobenzyl)-9-hydroxy-7-(pyrimidin-4-yl)-3,4-dihydro-2H-pyrido[1,2-a]pyrazine-1,8-dione hydrochloride]", "IC50": "10 to 100"}, {"smiles": "O=c1c(-c2ccncn2)cn2ccn(Cc3ccc(F)c(Cl)c3)c(=O)c2c1O", "note": "[Example 395, 2-(3-chloro-4-fluorobenzyl)-9-hydroxy-7-(pyrimidin-4-yl)-2H-pyrido[1,2-a]pyrazine-1,8-dione hydrochloride]", "IC50": "< 10"}, {"smiles": "CCCOc1cc(Cl)cc(CN2CCn3cc(-c4nccs4)c(=O)c(O)c3C2=O)c1", "note": "[Example 396, 2-(3-chloro-5-propoxybenzyl)-9-hydroxy-7-(thiazol-2-yl)-3,4-dihydro-2H-pyrido[1,2-a]pyrazine-1,8-dione hydrochloride]", "IC50": "10 to 100"}, {"smiles": "CC(C)Oc1cc(Cl)cc(CN2CCn3cc(-c4nccs4)c(=O)c(O)c3C2=O)c1", "note": "[Example 397, 2-(3-chloro-5-isopropoxybenzyl)-9-hydroxy-7-(thiazol-2-yl)-3,4-dihydro-2H-pyrido[1,2-a]pyrazine-1,8-dione hydrochloride]", "IC50": "10 to 100"}]}]}
